Source: patent publication US20240425491A1, “HETEROARYL COMPOUNDS USEFUL IN THE TREATMENT OF COGNITIVE DISORDERS” (University College Cardiff Consultants Limited, priority 2021, published 2024)
Where a name gives a salt, the structure may show the parent alone.

These compounds were tested against T1, human recombinant GABAAR containing α5β3γ2 subunits (benzodiazepine site) (Homo sapiens, UniProt P18507+P31644) (assay: In vitro radioligand binding assay (α5-GABAAR Ki)). Conditions: inhibition of [3H]Ro15-1788 binding, membranes of L(tk−) cells expressing human α5β3γ2; read-out: α5-GABAAR Ki.
T1 construct: expressed in transfected cells; host or cells: mouse L(tk−) cells, dexamethasone-inducible vector pMSGneo
T1 sequence (P31644 32-462): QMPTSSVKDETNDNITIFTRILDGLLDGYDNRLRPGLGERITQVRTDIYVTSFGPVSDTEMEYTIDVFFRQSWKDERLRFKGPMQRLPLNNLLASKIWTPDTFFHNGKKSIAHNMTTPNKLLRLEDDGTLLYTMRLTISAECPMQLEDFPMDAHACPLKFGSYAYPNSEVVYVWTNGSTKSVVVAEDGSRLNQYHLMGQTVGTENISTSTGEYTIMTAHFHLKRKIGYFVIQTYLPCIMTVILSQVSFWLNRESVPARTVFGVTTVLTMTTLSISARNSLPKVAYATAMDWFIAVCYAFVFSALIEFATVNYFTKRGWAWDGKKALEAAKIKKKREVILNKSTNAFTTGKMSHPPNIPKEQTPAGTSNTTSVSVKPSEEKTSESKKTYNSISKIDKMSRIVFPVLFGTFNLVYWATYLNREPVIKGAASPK
T1 sequence (P28472 26-473 partner): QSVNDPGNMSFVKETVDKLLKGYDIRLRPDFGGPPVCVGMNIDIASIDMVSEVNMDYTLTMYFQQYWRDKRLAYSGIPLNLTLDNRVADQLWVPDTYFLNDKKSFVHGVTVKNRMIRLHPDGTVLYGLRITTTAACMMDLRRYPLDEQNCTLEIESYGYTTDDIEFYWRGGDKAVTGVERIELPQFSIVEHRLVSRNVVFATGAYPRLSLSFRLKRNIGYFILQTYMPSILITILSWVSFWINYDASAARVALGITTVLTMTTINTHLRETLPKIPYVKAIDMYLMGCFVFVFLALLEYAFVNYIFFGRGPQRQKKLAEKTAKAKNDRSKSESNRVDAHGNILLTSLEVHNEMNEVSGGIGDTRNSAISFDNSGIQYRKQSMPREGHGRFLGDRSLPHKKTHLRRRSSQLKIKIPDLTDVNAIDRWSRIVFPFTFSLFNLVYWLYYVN
T1 sequence (P18507 40-475): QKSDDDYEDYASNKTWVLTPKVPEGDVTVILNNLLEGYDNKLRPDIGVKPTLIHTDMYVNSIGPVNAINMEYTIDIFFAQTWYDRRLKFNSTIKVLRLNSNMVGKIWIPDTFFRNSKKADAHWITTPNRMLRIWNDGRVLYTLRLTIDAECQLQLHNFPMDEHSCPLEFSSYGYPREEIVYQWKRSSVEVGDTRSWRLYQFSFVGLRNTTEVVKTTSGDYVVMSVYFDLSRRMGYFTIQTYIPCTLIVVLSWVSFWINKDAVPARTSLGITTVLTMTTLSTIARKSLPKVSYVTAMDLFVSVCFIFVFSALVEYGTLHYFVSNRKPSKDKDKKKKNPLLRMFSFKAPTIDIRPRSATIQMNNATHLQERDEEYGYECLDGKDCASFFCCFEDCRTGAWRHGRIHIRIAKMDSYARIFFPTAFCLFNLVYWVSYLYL
Text: Mouse L(tk^−) cells stably expressing human α1β3γ2, α2β3γ2, α3β3γ2, α5β3γ2 GABAARs generated by transfection of the individual subunits in the dexamethasone-inducible expression vector pMSGneo in mouse L(tk^−) cells (Hadingham et al., 1993, Mol. Pharmacol. 43:970-975 and 1993, Mol. Pharmacol. 44:1211-1218) were used for binding and functional assays. For certain compounds, HEK293 cells stable expressing the human α1β3γ2L, α2β3γ2L, α3β3γ2L and α5β3γ2L GABAA receptors were used to evaluate their functional effects in a SyncroPatch electrophysiology assay.
L(tk^−) cells stably expressing human α1β3γ2, α2β3γ2, α3β3γ2, α5β3γ2 GABAARs were maintained in DMEM F12 medium supplemented with 10% Foetal Bovine Serum, 1% Penicillin/Streptomycin and 1 mg/mL Geneticin G418 in an incubator at 37° C. with a humidified atmosphere with 5% CO2.
The affinity (Ki) of compounds for the benzodiazepine site of human recombinant GABAARs was measured by their ability to inhibit the binding of the selective benzodiazepine antagonist [^3H] Ro15-1788 ([^3H] flumazenil).
L(tk^−) cells expressing human recombinant GABAAR containing α1β3γ2, α2β3γ2, α3β3γ2, α5β3γ2 subunits were harvested and membranes were prepared for each receptor combination in phosphate buffer (K2PO4 10 mM, pH 7.0) (Hadingham et al. (1992) Proc. Natl. Acad. Sci. USA; 89 (14): 6378-82). Protein concentration, receptor expression and the Kd of [^3H] Ro15-1788 were determined before Ki values of compounds were evaluated. For Kd evaluation, saturation binding curves were obtained by incubating membrane with various concentrations of [^3H] Ro15-1788 (82.5 Ci/mM), with nonspecific binding measured in the presence of 1 μM TP003.
For Ki evaluation, cell membranes were incubated with 4 nM [^3H] Ro15-1788 along with a range of concentrations of test compound. Nonspecific binding was determined using 1 μM TP003. All incubations were performed for 1 hour at 4° C. in assay buffer. The total assay volume was 0.5 mL, containing 100 μg membrane protein/well α1β3γ2, α2β3γ2, α3β3γ2 and 50 μg membrane protein/well for α53γ2. Incubations were terminated by filtration and washing with ice cold Tris-HCl buffer (50 mM, pH=7.4) over Whatman GF/B filters and the radioactivity of the filters was measured using liquid scintillation counting.
The % inhibition of [^3H] Ro15-1788 binding was plotted as a function of compound concentration and the IC50 calculated. From the IC50, the affinity (Ki) was calculated using the method of Cheng and Prusoff using the Kd values obtained for [^3H] Ro15-1788.
COc1nc(-c2ccc3c(=O)[nH]ncc3c2)ccc1NC(=O)c1c(-c2ccccc2)noc1C [Example 117, N-(2-Methoxy-6-(1-oxo-1,2-dihydrophthalazin-6-yl)pyridin-3-yl)-5-methyl-3-phenylisoxazole-4-carboxamide] showed a Ki of 2.6 nM.
COc1nc(-c2cnc3[nH]ccc3c2)ccc1NC(=O)c1c(-c2ccccc2)noc1C [Example 118, N-(2-Methoxy-6-(1H-pyrrolo[2,3-b]pyridin-5-yl)pyridin-3-yl)-5-methyl-3-phenylisoxazole-4-carboxamide] showed a Ki of 137 nM.
COc1nc(-c2nn[nH]n2)ccc1NC(=O)c1c(-c2ccccc2)noc1C [Example 122, N-[2-Methoxy-6-(2H-tetrazol-5-yl)-3-pyridyl]-5-methyl-3-phenyl-isoxazole-4-carboxamide] showed a Ki of 126 nM.
CCOC(=O)Cn1c(-c2ccc(NC(=O)c3c(-c4ccccc4)noc3C)c(OC)n2)cnc1C [Example 134, Ethyl 2-[5-[6-methoxy-5-[(5-methyl-3-phenyl-isoxazole-4-carbonyl)amino]-2-pyridyl]-2-methyl-imidazol-1-yl] acetate] gave a Ki of 51.9 nM.
Compound COc1nc(-n2ccnc2)ccc1NC(=O)c1c(-c2ccccn2)noc1C [Example 146, N-(6-Imidazol-1-yl-2-methoxy-3-pyridyl)-5-methyl-3-(2-pyridyl) isoxazole-4-carboxamide] has a Ki of 79 nM.
Work on COc1nc(-c2cncnc2)ccc1NC(=O)c1c(C)nnn1-c1ccccc1 [Example 157, N-(2-Methoxy-6-(pyrimidin-5-yl)pyridin-3-yl)-4-methyl-1-phenyl-1H-1,2,3-triazole-5-carboxamide] yielded a Ki of 45.8 nM.
COc1nc(-c2cncc(OC(F)F)c2)cnc1NC(=O)c1c(-c2ccccc2)noc1C [Example 158, N-[5-[5-(Difluoromethoxy)-3-pyridyl]-3-methoxy-pyrazin-2-yl]-5-methyl-3-phenyl-isoxazole-4-carboxamide] gave a Ki of 8.4 nM.
In the case of CNc1nc(-n2ccnc2)ccc1NC(=O)c1c(-c2ccccc2)noc1C [Example 177, N-(6-(1H-Imidazol-1-yl)-2-(methylamino)pyridin-3-yl)-5-methyl-3-phenylisoxazole-4-carboxamide], the Ki is reported as 545 nM.
Work on COc1nc(-c2ccc(CN)cc2)ccc1NC(=O)c1c(-c2ccccc2)noc1C [Example 182, N-[6-[4-(Aminomethyl)phenyl]-2-methoxy-3-pyridyl]-5-methyl-3-phenyl-isoxazole-4-carboxamide hydrochloride] yielded a Ki of 8.8 nM.
With COc1ncc(-c2ccc(NC(=O)c3c(-c4ccccc4)noc3C)c(OC)n2)c(C)n1 [Example 191, N-[2-Methoxy-6-(2-methoxy-4-methyl-pyrimidin-5-yl)-3-pyridyl]-5-methyl-3-phenyl-isoxazole-4-carboxamide] the Ki was 1.3 nM.
For CNc1ncc(-c2ccc(NC(=O)c3c(-c4ccccc4)noc3C)c(OC)n2)c(C)n1 [Example 192, N-[2-Methoxy-6-[4-methyl-2-(methylamino)pyrimidin-5-yl]-3-pyridyl]-5-methyl-3-phenyl-isoxazole-4-carboxamide], the Ki was 1.2 nM.
Compound COc1nc(C)c(-c2ccc(NC(=O)c3c(-c4ccccc4)noc3C)c(OC)n2)c(C)n1 [Example 193, N-[2-Methoxy-6-(2-methoxy-4,6-dimethyl-pyrimidin-5-yl)-3-pyridyl]-5-methyl-3-phenyl-isoxazole-4-carboxamide] has a Ki of 22.9 nM.
CNc1nc(C)c(-c2ccc(NC(=O)c3c(-c4ccccc4)noc3C)c(OC)n2)c(C)n1 [Example 194, N-(6-(4,6-Dimethyl-2-(methylamino)pyrimidin-5-yl)-2-methoxypyridin-3-yl)-5-methyl-3-phenylisoxazole-4-carboxamide] showed a Ki of 38.7 nM.
COc1nc(-c2nnc3n2CCN(C)C3)ccc1NC(=O)c1c(-c2ccccc2)noc1C [Example 195, N-(2-Methoxy-6-(7-methyl-5,6,7,8-tetrahydro-[1,2,4]triazolo[4,3-a]pyrazin-3-yl)pyridin-3-yl)-5-methyl-3-phenylisoxazole-4-carboxamide] gave a Ki of 23.5 nM.
In the case of COc1cc(-c2cnc(N)nc2)ccc1NC(=O)c1c(-c2ccccc2)noc1C [Example 197, N-[4-(2-Aminopyrimidin-5-yl)-2-methoxy-phenyl]-5-methyl-3-phenyl-isoxazole-4-carboxamide hydrochloride], the Ki is reported as 0.4 nM.
Compound COc1cc(-c2cnc(N)cn2)ccc1NC(=O)c1c(-c2ccccc2)noc1C [Example 198, N-[4-(5-Aminopyrazin-2-yl)-2-methoxy-phenyl]-5-methyl-3-phenyl-isoxazole-4-carboxamide hydrochloride] has a Ki of 4.3 nM.
COc1nc(-c2cnc(C(C)(C)O)nc2)ccc1NC(=O)c1c(-c2ccccc2)noc1C [Example 201, N-[6-[2-(1-Hydroxy-1-methyl-ethyl)pyrimidin-5-yl]-2-methoxy-3-pyridyl]-5-methyl-3-phenyl-isoxazole-4-carboxamide] showed a Ki of 35.4 nM.
In the case of COc1nc(-c2cnc(CN)nc2)ccc1NC(=O)c1c(-c2ccccn2)nnn1C [Example 202, N-(6-(2-(Aminomethyl)pyrimidin-5-yl)-2-methoxypyridin-3-yl)-1-methyl-4-(pyridin-2-yl)-1H-1,2,3-triazole-5-carboxamide hydrochloride], the Ki is reported as 77.8 nM.
In the case of COc1nc(-c2cnc(CN)nc2)ccc1NC(=O)c1c(-c2ccc(Cl)cn2)nnn1C [Example 203, N-(6-(2-(Aminomethyl)pyrimidine-5-yl)-2-methoxypyridin-3-yl)-4-(5-chloropyridin-2-yl)-1-methyl-1H-1,2,3-triazole-5-carboxamide hydrochloride], the Ki is reported as 17 nM.
COc1nc(-c2cnoc2)ccc1NC(=O)c1c(-c2ccc(F)cc2)noc1N1CCC1 [Example 210, 5-(Azetidin-1-yl)-3-(4-fluorophenyl)-N-(6-isoxazol-4-yl-2-methoxy-3-pyridyl) isoxazole-4-carboxamide] was tested, and the Ki was 13.7 nM.
For COc1nc(-c2cnc(CN)nc2)ccc1NC(=O)c1c(-c2ccc(F)cc2)noc1NCCCCl [Example 211, N-[6-[2-(Aminomethyl)pyrimidin-5-yl]-2-methoxy-3-pyridyl]-5-(3-chloropropylamino)-3-(4-fluorophenyl) isoxazole-4-carboxamide hydrochloride], the Ki was 1.3 nM.
Work on Cc1onc(-c2ccccc2)c1C(=O)Nc1ccc(-n2ccnc2)[nH]c1=O [Example 212, N-(6-Imidazol-1-yl-2-oxo-1H-pyridin-3-yl)-5-methyl-3-phenyl-isoxazole-4-carboxamide] yielded a Ki of 313 nM.
For COc1nc(-c2ccc(C=O)cc2)ccc1NC(=O)c1c(-c2ccccc2)noc1C [Example 220, N-[6-(4-formylphenyl)-2-methoxy-3-pyridyl]-5-methyl-3-phenyl-isoxazole-4-carboxamide], the Ki was 3.4 nM.
Work on COc1nc(-c2ccc(CCl)cc2)ccc1NC(=O)c1c(-c2ccccc2)noc1C [Example 224, N-[6-[4-(chloromethyl)phenyl]-2-methoxy-3-pyridyl]-5-methyl-3-phenyl-isoxazole-4-carboxamide] yielded a Ki of 220 nM.
With COc1nc(-c2ccc(CN3CCOCC3)cc2)ccc1NC(=O)c1c(-c2ccccc2)noc1C [Example 225, N-[2-methoxy-6-[4-(morpholinomethyl)phenyl]-3-pyridyl]-5-methyl-3-phenyl-isoxazole-4-carboxamide] the Ki was 7.7 nM.
COc1nc(-c2ccc(CN3CC4(COC4)C3)cc2)ccc1NC(=O)c1c(-c2ccccc2)noc1C [Example 226, N-[2-methoxy-6-[4-(2-oxa-6-azaspiro[3.3]heptan-6-ylmethyl)phenyl]-3-pyridyl]-5-methyl-3-phenyl-isoxazole-4-carboxamide] showed a Ki of 3.3 nM.
For Cc1onc(-c2ccccc2)c1C(=O)Nc1ccc(-c2cnoc2)nc1OC(C)C [Example 227, N-(2-isopropoxy-6-(isoxazol-4-yl)pyridin-3-yl)-5-methyl-3-phenyl-isoxazole-4-carboxamide], the Ki was 0.5 nM.
With COc1nc(-c2ccc(CN3CC4COCC4C3)cc2)ccc1NC(=O)c1c(-c2ccccc2)noc1C (stereo not shown) [Example 233, N-(2-methoxy-6-(4-((tetrahydro-1H-furo[3,4-c]pyrrol-5 (3H)-yl)methyl)phenyl)pyridin-3-yl)-5-methyl-3-phenylisoxazole-4-carboxamide] the Ki was 7 nM.
